13 compounds from patent US7169786B2, “Isoxazoline derivatives as anti-depressants” (priority 2001, dated 2007) can be followed below.

The target in one test is T1, hα2B receptor (Homo sapiens, UniProt P18089).
T1 construct: expressed in transfected cells
T1 sequence (P18089 1-450): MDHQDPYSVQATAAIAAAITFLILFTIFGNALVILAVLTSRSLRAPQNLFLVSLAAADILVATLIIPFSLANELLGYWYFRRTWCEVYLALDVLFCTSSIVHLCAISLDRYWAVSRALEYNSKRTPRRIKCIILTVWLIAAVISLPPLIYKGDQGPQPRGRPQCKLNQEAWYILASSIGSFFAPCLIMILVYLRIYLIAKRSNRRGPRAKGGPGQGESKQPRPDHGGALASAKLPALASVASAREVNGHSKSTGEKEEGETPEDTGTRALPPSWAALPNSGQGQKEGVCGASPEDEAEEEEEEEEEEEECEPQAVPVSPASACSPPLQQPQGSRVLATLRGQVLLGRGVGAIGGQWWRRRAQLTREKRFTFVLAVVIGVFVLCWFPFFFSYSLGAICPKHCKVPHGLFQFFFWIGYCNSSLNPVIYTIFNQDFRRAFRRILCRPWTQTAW
The test can be described thus: Radioligand binding experiment for hα2B receptor ([3H]-raulwolscine). The note with it: for IC50: read-out: hα2B pIC50 (converted). How it is done: (§1) The interaction of the compounds of Formula (I) with hα2-receptors and h5-HT-transporters was assessed in in vitro radioligand binding experiments. In general, a low concentration of a radioligand with a high binding affinity for a particular receptor or transporter is incubated with a sample of a tissue preparation enriched in a particular receptor or transporter or with a preparation of cells expressing cloned human receptors in a buffered medium. During the incubation, the radioligand binds to the receptor or transporter. When equilibrium of binding is reached, the receptor bound radioactivity is separated from the non-bound radioactivity, and the receptor- or transporter-bound activity is counted. The interaction of the test compounds with the receptor is assessed in competition binding experiments. Various concentrations of the test compound are added to the incubation mixture containing the receptor- or transporter preparation and the radioligand. The test compound in proportion to its binding affinity and its concentration inhibits binding of the radioligand. The radioligand used for hα2A, hα2B and hα2C receptor binding was [^3H]-raulwolscine and for the h5-HT transporter was [^3H]paroxetine.
(§2) CHO cells, stabile transfected with human adrenergic-α2A-, -α2B or α2C receptor cDNA, were cultured in Dulbecco's Modified Eagle's Medium (DMEM)/Nutrient mixture Ham's F12 (ratio 1:1)(Gibco, Gent-Belgium) supplemented with 10% heat inactivated fetal calf serum (Life Technologies, Merelbeke-Belgium) and antibiotics (100 IU/ml penicillin G, 100 μg/ml streptomycin sulphate, 110 μg/ml pyruvic acid and 100 μg/ml L-glutamine). One day before collection, cells were induced with 5 mM sodiumbutyrate. Upon 80–90% of confluence, cells were scraped in phosphate buffered saline without Ca^2+ and Mg^2+ and collected by centrifugation at 1500×g for 10 min. The cells were homogenised in Tris-HCl 50 mM using an Ultraturrax homogenizer and centrifuged for 10 min at 23,500×g. The pellet was washed once by resuspension and rehomogenization and the final pellet was resuspended in Tris-HCl, divided in 1 ml aliquots and stored at −70° C.
(§3) Membranes were thawed and re-homogenized in incubation buffer (glycylglycine 25 mM, pH 8.0). […] Filters were rinsed extensively with ice-cold rinsing buffer (Tris-HCl 50 mM pH 7.4). Filter-bound radioactivity was determined by scintillation counting in a Topcount (Packard, Meriden, Conn.) and results were expressed as counts per minute (cpm). Non-specific binding was determined in the presence of 1 μM oxymetazoline for hα2A- and hα2B receptors and 1 μM spiroxatrine for hα2C receptors.
(§4) Data from assays in the presence of compound were calculated as a percentage of total binding measured in the absence of test compound. Inhibition curves, plotting percent of total binding versus the log value of the concentration of the test compound, were automatically generated, and sigmoidal inhibition curves were fitted using non-linear regression. The pIC50 values of test compounds were derived from individual curves.

A further test has as its target T2, h5-HT transporter (Homo sapiens, UniProt P31645).
T2 construct: Human platelet membranes (Oceanix Biosciences Corporation, Hanover, Md., USA) were thawed; tissue Oceanix Biosciences Corporation, Hanover, Md., USA; host or cells: human platelet membranes
The test can be described thus: Radioligand binding experiment for 5-HT transporter ([3H]paroxetine, human platelet membranes). How it is done: as §1
Human platelet membranes (Oceanix Biosciences Corporation, Hanover, Md., USA) were thawed, diluted in buffer (Tris-HCl 50 mM, 120 mM NaCl and 5 mM KCl) and quickly (max 3 s) homogenised with an Ultraturrax homogenizer. […] Filters were rinsed extensively with ice-cold buffer and radioactivity on the filters was counted in a Topcount liquid scintillation counter (Packard, Meriden, Conn.). Data were expressed as cpm. Imipramine (at 1 μM final concentration) was used to determine the non-specific binding.
as §4

Another test addresses T3, hα2C receptor (Homo sapiens, UniProt P18825).
T3 construct: expressed in transfected cells
T3 sequence (P18825 1-462): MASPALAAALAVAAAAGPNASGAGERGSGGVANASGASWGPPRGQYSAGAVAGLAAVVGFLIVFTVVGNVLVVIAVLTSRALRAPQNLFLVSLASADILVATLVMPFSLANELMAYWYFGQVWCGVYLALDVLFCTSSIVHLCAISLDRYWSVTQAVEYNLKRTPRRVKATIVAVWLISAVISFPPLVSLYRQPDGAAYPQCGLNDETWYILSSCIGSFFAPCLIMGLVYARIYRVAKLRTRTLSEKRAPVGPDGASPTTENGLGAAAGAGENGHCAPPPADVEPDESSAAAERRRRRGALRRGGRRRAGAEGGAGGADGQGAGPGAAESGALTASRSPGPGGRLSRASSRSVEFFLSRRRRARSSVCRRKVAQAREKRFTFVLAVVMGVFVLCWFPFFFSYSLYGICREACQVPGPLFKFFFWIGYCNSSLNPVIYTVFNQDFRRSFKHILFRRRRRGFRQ
The test is described as follows: Radioligand binding experiment for hα2C receptor ([3H]-raulwolscine). How it is done:
as §1, §2, §3, §4

Where [1] appears, read: read-out: 5HTT pIC50 (converted).
The mark [2] stands for this setting: read-out: hα2C pIC50 (converted).
Where [3] appears, read: membranes of CHO cells expressing human α2B receptor, [3H]raulwolscine 1 nM.
Where [4] appears, read: membranes of CHO cells expressing human α2C receptor, [3H]raulwolscine 1 nM, read-out: hα2C pIC50 (converted).
[5] abbreviates: human platelet membranes, [3H]paroxetine 0.5 nM, read-out: 5HTT pIC50 (converted).

Where two headings read alike, the source gives them in different places.

T2 sequence (P31645 whole entry): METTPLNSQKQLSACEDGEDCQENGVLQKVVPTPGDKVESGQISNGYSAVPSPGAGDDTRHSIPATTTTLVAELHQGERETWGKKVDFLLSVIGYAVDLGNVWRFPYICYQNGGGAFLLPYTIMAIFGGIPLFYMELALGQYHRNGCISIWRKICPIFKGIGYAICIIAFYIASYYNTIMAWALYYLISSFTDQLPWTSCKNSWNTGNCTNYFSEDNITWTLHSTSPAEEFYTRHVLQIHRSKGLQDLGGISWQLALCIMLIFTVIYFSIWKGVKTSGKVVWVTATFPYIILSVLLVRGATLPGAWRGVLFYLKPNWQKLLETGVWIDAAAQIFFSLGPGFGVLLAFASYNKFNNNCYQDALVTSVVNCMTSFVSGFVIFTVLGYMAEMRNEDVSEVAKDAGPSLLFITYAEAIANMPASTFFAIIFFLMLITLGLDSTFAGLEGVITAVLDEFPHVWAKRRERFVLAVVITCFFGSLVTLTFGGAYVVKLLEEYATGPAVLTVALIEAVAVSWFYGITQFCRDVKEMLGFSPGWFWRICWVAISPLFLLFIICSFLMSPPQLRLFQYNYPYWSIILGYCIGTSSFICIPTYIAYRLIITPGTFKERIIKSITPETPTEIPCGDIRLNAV

For `COc1cc2c(cc1OC)C1=NOC(CN3CCN(C/C=C/c4ccccc4)CC3)C1CO2` (single isomer, unassigned) [Compound 1], the values for the IC50 at hα2B receptor and on h5-HT transporter (setting [1]) were 3.24 nM and 5.13 nM, respectively.
Taken in the same sequence, the figures for `COc1cc2c(cc1OC)C1=NOC(CN3CCN(C/C=C/c4ccccc4)CC3)C1CO2` (single isomer, unassigned) [Compound 8] were 7.24 nM and 17.8 nM.
`COc1cc2c(cc1OC)C1=NOC(CN3CCN(Cc4ccc5ccccc5c4)CC3)C1CO2` (single isomer, unassigned) [Compound 16]: the IC50 is 6.17 nM on hα2B receptor, 6.76 nM on hα2C receptor (setting [2]) and 3.72 nM at h5-HT transporter (setting [1]).
For `COc1cc2c(cc1OC)C1=NOC(CN3CCN(C/C(C)=C/c4ccccc4)CC3)C1CO2` (single isomer, unassigned) [Compound 129], the figures for the IC50 on hα2B receptor (setting [3]) and on hα2C receptor (setting [4]) were 9.77 nM and 6.76 nM, respectively.
For the compound `COc1cc2c(cc1OC)C1=NOC(CN3CCN(CC(C)=Cc4ccccc4)CC3)C1CN2` (single isomer, unassigned) [Compound 253], the “hα2B pIC50” value on hα2B receptor (setting [3]) is reported as 7.94. The “hα2C pIC50” value at hα2C receptor (membranes of CHO cells expressing human α2C receptor, [3H]raulwolscine 1 nM) was 7.98. Moreover, at h5-HT transporter (human platelet membranes, [3H]paroxetine 0.5 nM), the “5HTT pIC50” value is recorded as 6.60.
Take `COc1cc2c(cc1OC)C1=NOC(CN3CCN(C/C=C(\C)c4ccccc4)CC3)C1CO2` (single isomer, unassigned) [Compound 320]: the IC50 is 20 nM on hα2B receptor, 6.76 nM on hα2C receptor (setting [2]) and 32.4 nM at h5-HT transporter (setting [1]).
Take `CCNC(=O)Oc1cc2c(cc1OC)C1=NOC(CN3CCN(C/C(C)=C/c4ccccc4)CC3)C1CO2` (single isomer, unassigned) [Compound 340]: the IC50 was 3.8 nM on hα2C receptor (hα2C pIC50, membranes of CHO cells expressing human α2C receptor, [3H]raulwolscine 1 nM) and 22.9 nM at h5-HT transporter (5HTT pIC50).
With `c1ccc2c(c1)NCC1C2=NOC1CN1CCN(Cc2ccc3ccccc3c2)CC1` (centres unmarked) [Compound 9], the figures for the IC50 at hα2B receptor (setting [3]), on hα2C receptor (setting [4]) and at h5-HT transporter (setting [5]) were 4.68 nM, 107 nM and 1.58 nM, respectively.
For the compound `COc1cc2c(cc1OC)C1=NOC(CN3CCN(Cc4ccc5ccccc5c4)CC3)C1CN2` (centres unmarked) [Compound 15], the IC50 on hα2B receptor (setting [3]) is 14.5 nM; at hα2C receptor (setting [4]), 11.5 nM; at h5-HT transporter (setting [1]), 17 nM.
As to `COc1cc2c(cc1OC)C1=NOC(CN3CCN(Cc4ccccc4C(F)(F)F)CC3)C1CO2` (centres unmarked) [Compound 79], the IC50 on hα2C receptor (setting [4]) and on h5-HT transporter (setting [5]) was 1000 nM each time.
As to `COc1cc2c(cc1OC)C1=NOC(CN3CCN(Cc4ccc([N+](=O)[O-])cc4)CC3)C1CO2` (centres unmarked) [Compound 81], the IC50 on hα2C receptor (setting [4]) is 1000 nM; at h5-HT transporter (setting [5]) it was 145 nM.
On to `COc1cc2c(cc1OC)C1=NOC(CN3CCN(Cc4cccc(C#N)c4)CC3)C1CO2` (centres unmarked) [Compound 97], for which the IC50 on hα2C receptor (setting [4]) is 1000 nM; on h5-HT transporter (setting [5]), 355 nM.
For the compound `COc1ccc2c(c1)OCC1C2=NOC1CN1CCN(CC=Cc2ccccc2)CC1` (centres unmarked) [Compound 217], the IC50 was 6.17 nM at hα2B receptor (setting [3]), 14.1 nM at hα2C receptor (setting [2]) and 53.7 nM on h5-HT transporter (setting [5]).
